Data set [1] has as its system Enterococcus faecium. The data set can be described thus: Compound was evaluated for inhibitory effect on growth of Streptococcus faecium MTX resistant. It counts as functional, organism-based.
Data set [2] deals with Lacticaseibacillus casei. The data set can be described thus: Compound was evaluated for inhibitory effect on growth of Lactobacillus casei ATCC 7469. Type of data set: functional, organism-based.
Data set [3] deals with Lacticaseibacillus casei. The data set is described as follows: Compound was evaluated for inhibitory effect on growth of Lactobacillus casei MTX resistant. Type of data set: functional, organism-based.
Data set [4] deals with T1, Thymidylate synthase (Lactobacillus casei, UniProt P00469).
T1 sequence (P00469 whole entry): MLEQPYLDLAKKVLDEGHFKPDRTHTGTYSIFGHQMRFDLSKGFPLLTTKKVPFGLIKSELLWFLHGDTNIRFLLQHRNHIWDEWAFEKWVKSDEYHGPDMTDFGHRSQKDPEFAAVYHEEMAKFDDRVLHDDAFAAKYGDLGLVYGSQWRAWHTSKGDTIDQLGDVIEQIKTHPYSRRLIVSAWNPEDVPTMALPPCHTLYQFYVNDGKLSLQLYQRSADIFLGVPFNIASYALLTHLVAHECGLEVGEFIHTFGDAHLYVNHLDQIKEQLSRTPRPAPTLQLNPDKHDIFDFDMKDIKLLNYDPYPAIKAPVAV
The data set can be described thus: (§1) Compound was evaluated for inhibitory effect on the thymidylate synthase (TS) of Lactobacillus casei. It counts as functional, Lacticaseibacillus casei.

The test system of data set [5] is Enterococcus faecium. The data set is described as follows: Compound was evaluated for inhibitory effect on growth of Streptococcus faecium ATCC 8043. Type of data set: functional, organism-based.
For data set [6], the system named is L1210. The data set can be described thus: Compound was evaluated for rate of anabolism to polyglutamate accumulation in L1210 cells. Type of data set: functional, Mus musculus.
Data set [7] concerns L1210. The data set is described as follows: Compound was evaluated for the influx (Km) mediated transport with respect to L1210 cells. It counts as functional, cell-based. To be noted: Mus musculus.
Data set [8] has as its system L1210. The data set can be described thus: Compound was evaluated for the efflux (K) mediated transport with respect to L1210 cells. Type of data set: functional, cell-based. Conditions: Mus musculus.
Data set [9] deals with T2, Dihydrofolate reductase (Mus musculus, UniProt P00375).
T2 sequence (P00375 whole entry): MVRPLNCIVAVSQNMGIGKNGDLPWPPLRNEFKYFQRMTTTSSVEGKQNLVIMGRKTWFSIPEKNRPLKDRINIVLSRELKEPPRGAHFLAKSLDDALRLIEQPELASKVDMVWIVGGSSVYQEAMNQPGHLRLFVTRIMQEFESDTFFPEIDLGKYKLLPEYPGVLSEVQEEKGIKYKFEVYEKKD
The data set can be described thus: Compound was evaluated for inhibitory effect on dihydrofolate reductase (DHFR) from L1210 cells at Inhibitory constant (n=3). Type of data set: cell-based.

The test system of data set [10] is P388. The data set can be described thus: (§2) Compound at a optimum dose level of 0.5 mg/kg was evaluated in vivo against Murine P388/0 […] cells (1 X 10E6 ip implant). To be noted: mouse. Further details: dose 0.5 mg/kg, route intraperitoneal. Type of data set: organism-based.
For data set [11], the system named is P388. The description is as §2. Type of data set: functional, Mus musculus. Conditions: route intraperitoneal.
Data set [12] deals with P388. The data set is described as follows: Compound at a optimum dose level of 2 mg/kg was evaluated in vivo against Murine P388/MTX resistant cells (1 X 10E6 ip implant). Conditions: route intraperitoneal. Type of data set: functional, Mus musculus.
Data set [13] deals with L1210. The data set can be described thus: cells. To be noted: Mus musculus.
In data set [14] the test system is L1210. The data set is described as follows: Compound was evaluated for the influx (Km) mediated transport with respect to L1210 cells. To be noted: Mus musculus. Type of data set: functional, cell-based.
Data set [15] has as its target T1, Thymidylate synthase. Described as §1. Further details: species or system Lacticaseibacillus casei.
Data set [16] relates to P388. The data set is described as follows: Compound at a optimum dose level of 0.5 mg/kg was evaluated in vivo against Murine P388/MTX resistant cells (1 X 10E6 ip implant). Type of data set: functional, Mus musculus. To be noted: route intraperitoneal.
[17] abbreviates: Lacticaseibacillus casei, read-out: IC50.

The source of these data is ChEMBL document CHEMBL1123527 (J Med Chem, 1986).

Each structure is given as a SMILES string. Values after ≈ are worked out from the molar mass of the structure shown.

By IC50 is commonly meant the concentration needed to halve the response being measured. The term Km denotes the substrate concentration at which the rate is half of its maximum. The term Ki denotes a measure of affinity in units of concentration, obtained from inhibition or displacement. Lower therefore signals higher affinity. For orientation: T/C means the result in the treated group divided by that in the control group, in per cent.

Regarding `Nc1nc(O)c2cc(CNc3ccc(C(=O)NC(CCC(=O)O)C(=O)O)cc3)cnc2n1` (stereo not given), the IC50 came to 49 ng/mL (≈ 0.111 µM) in data set [1]; 0.054 ng/mL (≈ 0.000123 µM) in [2]; 3500 ng/mL (≈ 7.95 µM) in data set [3] (setting [17]); 1700 nM in [4]; 0.09 ng/mL (≈ 0.000204 µM) in data set [5].

For the compound `Nc1nc(N)c2nc(CNc3ccc(C(=O)N[C@@H](CCC(=O)O)C(=O)O)cc3)cnc2n1` [AMINOPTERIN], the Rate in data set [6] is on record as 165 pM min-1 (g dry weight)-1. For the same compound, the Km in [7] is 1.2 µM. The compound further registered a K in [8] of 0.31 min⁻¹. Moreover, the affinity in [9] corresponds to a Ki of 0.00355 nM.

Regarding `Nc1nc(N)c2cc(CNc3ccc(C(=O)NC(CCC(=O)O)C(=O)O)cc3)cnc2n1` (stereo not given), in data set [6], the Rate is recorded as 84.2 pM min-1 (g dry weight)-1. For the same compound, in data set [7], the Michaelis constant (Km) is 1.1 µM. In addition, the T/C in data set [10] is given as 146%. In addition, the Survival time in data set [11] stood at 15.8 days; in data set [12], 21.8 days. In data set [8], this compound had a K of 0.3 min⁻¹. The compound also had a Ki in [9] of 0.00365 nM. Besides, in data set [13], the IC50 is 0.63 nM.

`CCOC(=O)CCC(NC(=O)c1ccc(NCc2cnc3nc(N)nc(N)c3c2)cc1)C(=O)OCC` (stereo not given): in [10], the T/C is given as 151%. The Survival time in [11] turned out to be 16.2 days; in [12] it was 20.8 days.

Consider `Cc1c(CNc2ccc(C(=O)NC(CCC(=O)O)C(=O)O)cc2)cnc2nc(N)nc(O)c12` (stereo not given), for which the IC50 was above 10000 ng/mL in data set [1], 0.57 ng/mL (≈ 0.00125 µM) in data set [2], above 10000 ng/mL in data set [3] (setting [17]) and 380 ng/mL (≈ 0.836 µM) in data set [5].

As for `CN(Cc1cnc2nc(N)nc(N)c2c1)c1ccc(C(=O)NC(CCC(=O)O)C(=O)O)cc1` (stereo not given), the Rate in data set [6] is reported as 48.8 pM min-1 (g dry weight)-1. In addition, in [10], the T/C is given as 166%. For the same compound, the figures for the Survival time in [11] and in data set [12] were 18 days and 20.3 days, respectively. For the same compound, the Km in [14] was found to be 4 µM. Moreover, in data set [8], the K came out at 0.28 min⁻¹. Further, in data set [9], the Ki came to 0.00526 nM. This compound also showed a 50% inhibitory concentration (IC50) in [13] of 2.85 nM.

In the case of `Cc1c(CN(C)c2ccc(C(=O)NC(CCC(=O)O)C(=O)O)cc2)cnc2nc(N)nc(O)c12` (stereo not given), the IC50 was above 10000 ng/mL in data set [1]; 4.6 ng/mL (≈ 0.00982 µM) in [2]; above 10000 ng/mL in [3] (setting [17]); 2.77 nM in [15]; 30 ng/mL (≈ 0.064 µM) in [5].

For the compound `CN(Cc1cnc2nc(N)nc(N)c2n1)c1ccc(C(=O)N[C@@H](CCC(=O)O)C(=O)O)cc1` [METHOTREXATE], the results for the IC50 in data set [1], in [3] and in data set [5] were 3000 ng/mL (≈ 6.6 µM), above 500000 ng/mL and 0.26 ng/mL (≈ 0.000572 µM), respectively. Moreover, the Km in data set [7] turned out to be 3.3 µM. The same compound had a T/C in [10] of 182%. Besides, the Survival time in data set [11] is 19.7 days; in data set [12] it was 20.3 days. For the same compound, the K in data set [8] came to 0.33 min⁻¹.

As to `CCN(Cc1cnc2nc(N)nc(N)c2c1C)c1ccc(C(=O)NC(CCC(=O)O)C(=O)O)cc1` (stereo not given), the Km in data set [7] was 3.3 µM. In [8], this compound gave a K of 0.29 min⁻¹. Further, the Ki in [9] was determined as 0.00264 nM. Further, the IC50 in data set [13] came out at 0.26 nM.

For the compound `Cc1c(CN(C)c2ccc(C(=O)NC(CCC(=O)O)C(=O)O)cc2)cnc2nc(N)nc(N)c12` (stereo not given), the Rate in data set [6] is 42.9 pM min-1 (g dry weight)-1. For the same compound, the Km in data set [7] was determined as 3.2 µM. The compound further returned a T/C in [10] of 182%. In addition, the figures for the Survival time in data set [11] and in data set [12] were 19.7 days and 20.8 days, respectively. The compound further displayed a K in [8] of 0.31 min⁻¹. The compound further yielded a Ki in data set [9] of 0.00212 nM. The compound also came in with an IC50 in data set [13] of 0.24 nM.

As for `Cc1c(CNc2ccc(C(=O)NC(CCC(=O)O)C(=O)O)cc2)cnc2nc(N)nc(N)c12` (stereo not given), the Rate in [6] was 98.3 pM min-1 (g dry weight)-1. The Km in [7] turned out to be 1.2 µM. For the same compound, the T/C in data set [10] was found to be 151%. Moreover, the figures for the Survival time in data set [16] and in data set [11] were 20.8 days and 16.4 days, respectively. In [8], this compound came in with a K of 0.26 min⁻¹. Also, in [9], the inhibition constant (Ki) was determined as 0.00293 nM. This compound came in with an IC50 in data set [13] of 0.13 nM.
